These are literature values, as cited in US9844530B1, “Ophthalmic solutions for glaucoma and conjunctivitis treatment” (Axim Biotechnologies, Inc., priority 2014, dated 2017).

The structures appear in SMILES notation.

The subject of the series is various Staphylococcus aureus strains. Conditions: background statement.

Consider `C=C(C)[C@@H]1CCC(C)=C[C@H]1c1c(O)cc(CCCCC)cc1O` [Cannabidiol], for which the minimum inhibitory concentration was 0.5 to 1 µg/mL.
